Measured values published in patent publication US20230002327A1, “SMALL-MOLECULE REGULATOR OF TLR8” (TSINGHUA UNIVERSITY, priority 2019, published 2023).

Columns and labels:
[1] = tested on: peripheral blood mononuclear cells of patients suffering from rheumatoid arthritis; experiment: TNF-α in PBMC of rheumatoid arthritis patients; format: cell-based, human; conditions: PBMC derived from rheumatoid arthritis patients (FIG. 9)
Method: Approximately 8 mL of blood was collected from untreated rheumatoid arthritis patients.
Peripheral blood mononuclear cells (PBMCs) were isolated from the whole blood derived from 6 rheumatoid arthritis patients using the lymphocyte separation medium, and the cells were seeded in a 96-well round-bottom plate at a density of 1×10^6 cells/mL immediately after the isolation (cultured in RPMI 1640 (0.25 mL/well)).
Afterwards, cells were treated with 0, 10, 20, 40 and 80 μM Compound 24, Compound 10 was used as a negative control, and cells were placed in a cell incubator (37° C., 5% CO2) for incubation.
After 24 hours, the resultant was centrifuged at 4,000 rpm/minute for 10 minutes, and then the supernatant was collected, frozen to −80° C. and used for the determination of TNF-α. Quantification was conducted using a human TNF ELISA Kit.

[2] = tested on: R848-induced signaling pathway in human peripheral blood mononuclear cells; experiment: ELISA of TNF-α in R848-treated human peripheral blood mononuclear cells; format: cell-based; conditions: human peripheral blood mononuclear cells (FIG. 8)
Method: After 48 hours, suspending cells would adhere onto the surface of the 12-well plate, non-adhered cells and the medium were aspirated, and cells were washed with sterile […] buffer (3×1 mL). RPMI medium was added (1 mL/well), and R848 (1 μg/mL) and various concentrations of Compound 24 or Compound 10 (as a negative control) were further added to treat cells. Or, the same amount of peripheral blood mononuclear cells derived from healthy human were used instead of THP-1 cells for subsequent experiments.
After 24 hours, the supernatant of the medium was collected and stored in a freezer at −80° C. Cells were washed with PBS (3×1 mL), the 12-well plate was placed on ice, and then 400 μL of lysis buffer (containing protease inhibitor) was added to each well, during which the cells were pipetted every five minutes. After 20 minutes, the mixture was transferred to the corresponding 1.5-mL tube and centrifuged at 13.2K rpm and 4° C. for 20 minutes. 350 μL of the supernatant was collected into a new centrifuge tube and frozen at −80° C.
Cytokines interleukin-1β(IL-1β), interleukin-6 (IL-6) and tumor necrosis factor (TNF-α) were quantified by enzyme-linked immunosorbent assay (ELISA) according to the instructions of the kit provided by the manufacturer.

OCCCc1nnc(S)n1-c1ccc(Cl)cc1Cl [Compound 10, 3-(4-(2,4-dichlorophenyl)-5-mercapto-4H-1,2,4-triazole-3-yl)propan-1-ol]
inhibitory effect on inflammatory factor TNF-α [1]: did not show such effect | inhibitory effect on inflammatory factor TNF-α [2]: did not exert inhibitory effect
